Experimental data published in the supplement of paper PMC11061612.

Key:
[1] = tested on: CHSA8926 (Chondrosarcoma); assay: Bliss excess, mean over the matrix (fraction); higher = more synergy
Method in brief: (§1)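 After 24 hours at 37°C and 5% CO2 in 1536-well plates, cells in DMEM/F12 or RPMI plus 10% FBS received two-drug dose matrices for 72 hours. Viability came from CellTiter-Glo 2.0 luminescence and was scaled as inhibition, anchored at 0 by vehicle wells and at 1 by blank wells. Combination Emax is taken as the second-highest inhibition in the matrix, and Bliss excess as the observed combination effect less EA + EB − EA·EB, with EA and EB the single-agent effects.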

[2] = tested on: ESO51 (Esophageal Adenocarcinoma); assay: as above
Method in brief: as §1

G-361 (Melanoma) = assay: as above
Method in brief: as §1

[3] = tested on: H9 (T-Cell Non-Hodgkin's Lymphoma); assay: as above
Method in brief: as §1

[4] = tested on: HCC1187 (Breast Carcinoma); assay: as above
Method in brief: as §1

[5] = tested on: IM-95 (Gastric Carcinoma); assay: as above
Method in brief: as §1

[6] = tested on: JHH-4 (Hepatocellular Carcinoma); assay: as above
Method in brief: as §1

[7] = tested on: KP-3 (Pancreatic Carcinoma); assay: as above
Method in brief: as §1

[8] = tested on: KY821 (Acute Myeloid Leukemia); assay: as above
Method in brief: as §1

[9] = tested on: MN-60 (B-Lymphoblastic Leukemia); assay: as above
Method in brief: as §1

[10] = tested on: MOLM-13 (Acute Myeloid Leukemia); assay: as above
Method in brief: as §1

[11] = tested on: NCCIT (Other Solid Carcinomas); assay: as above
Method in brief: as §1

NCI-H2731 (Mesothelioma) = assay: as above
Method in brief: as §1

[12] = tested on: NCI-H3122 (Lung Adenocarcinoma); assay: as above
Method in brief: as §1

[13] = tested on: NCI-H526 (Small Cell Lung Carcinoma); assay: as above
Method in brief: as §1

[14] = tested on: PC-3 (Prostate Carcinoma); assay: as above
Method in brief: as §1

[15] = tested on: SU-DHL-5 (B-Cell Non-Hodgkin's Lymphoma); assay: as above
Method in brief: as §1

[16] = tested on: SUP-B15 (B-Lymphoblastic Leukemia); assay: as above
Method in brief: as §1

[17] = tested on: T-T (Esophageal Squamous Cell Carcinoma); assay: as above
Method in brief: as §1

[18] = tested on: 8505C (Thyroid Gland Carcinoma); assay: combination Emax (second highest fraction inhibited in the dose matrix, 72 h); higher = more inhibition; extreme values may be limits of the assay
Method in brief: as §1
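Throughout, for Bliss excess, mean over the matrix: after 72 h of two-drug dosing.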

Row | SMILES | Bliss excess [1] | Bliss excess [2] | Bliss excess (G-361 (Melanoma)) | Bliss excess [3] | Bliss excess [4] | Bliss excess [5] | Bliss excess [6] | Bliss excess [7] | Bliss excess [8] | Bliss excess [9] | Bliss excess [10] | Bliss excess [11] | Bliss excess (NCI-H2731 (Mesothelioma)) | Bliss excess [12] | Bliss excess [13] | Bliss excess [14] | Bliss excess [15] | Bliss excess [16] | Bliss excess [17] | combination Emax [18]
1 | CN(CCO)CC[C@H](CSc1ccccc1)Nc1ccc(S(=O)(=O)NC(=O)c2ccc(N3CCC([C@@H](O)c4ccccc4-c4ccc(Cl)cc4)CC3)cc2)cc1S(=O)(=O)C(F)(F)F [AZD4320] + C[C@@H]1COCCN1C2=NC(=NC(=C2)C3(CC3)[S@](=N)(=O)C)C4=C5C=CNC5=NC=C4 [AZD6738] (first compound max 1 µM, 7x7, partner max 10 µM) | -0.011 | -0.0203 | -0.0395 | -0.0283 | -0.0209 | -0.021 | -0.0657 | -0.042 | -0.0241 | -0.0472 | 0.0272 | -0.0331 | -0.0178 | -0.0965 | -0.0302 | -0.0367 | -0.0426 | 0.0245 | 0.0494 | 0.59
2 | CN(CCO)CC[C@H](CSc1ccccc1)Nc1ccc(S(=O)(=O)NC(=O)c2ccc(N3CCC([C@@H](O)c4ccccc4-c4ccc(Cl)cc4)CC3)cc2)cc1S(=O)(=O)C(F)(F)F [AZD4320] + C[C@@H](Nc1cc(F)cc(F)c1)c1cc(C(=O)N(C)C)cc2c(=O)cc(N3CCOCC3)oc12 [AZD8186] (first compound max 1 µM, 7x7, partner max 3 µM) | 0.0889 | 0.0996 | 0.027 | 0.063 | 0.0582 | 0.0117 | 0.0282 | 0.0002 | 0.0053 | -0.0104 | 0.0619 | 0.0346 | 0.0288 | 0.0005 | 0.0434 | 0.057 | 0.0003 | 0.0179 | 0.054 | 0.502
3 | CN(CCO)CC[C@H](CSc1ccccc1)Nc1ccc(S(=O)(=O)NC(=O)c2ccc(N3CCC([C@@H](O)c4ccccc4-c4ccc(Cl)cc4)CC3)cc2)cc1S(=O)(=O)C(F)(F)F [AZD4320] + Cc1cc2ncnn2cc1Nc1ncc2c(n1)n(C1CCOCC1)c(=O)n2C [AZD7648] (first compound max 1 µM, 7x7, partner max 10 µM) | 0.0101 | -0.0168 | -0.0444 | 0.0046 | -0.025 | -0.0645 | -0.0356 | -0.0471 | 0.0393 | -0.0177 | 0.0157 | -0.059 | -0.0424 | -0.0676 | -0.0069 | -0.0432 | -0.0099 | -0.0072 | -0.0069 | 0.484
4 | CN(CCO)CC[C@H](CSc1ccccc1)Nc1ccc(S(=O)(=O)NC(=O)c2ccc(N3CCC([C@@H](O)c4ccccc4-c4ccc(Cl)cc4)CC3)cc2)cc1S(=O)(=O)C(F)(F)F [AZD4320] + Cn1cnc2c(F)c(Nc3ccc(Br)cc3Cl)c(C(=O)NOCCO)cc21 [Selumetinib] (first compound max 1 µM, 7x7, partner max 3 µM) | -0.0256 | 0.0355 | 0.028 | -0.0113 | 0.0264 | 0.0132 | -0.0091 | 0.0111 | 0.0262 | 0.0026 | 0.0296 | -0.0045 | -0.0124 | 0.0162 | -0.0061 | -0.0148 | 0.0368 | 0.0853 | 0.0564 | 0.475
5 | COc1nnc2ccc(N3CCC(c4ccc(OCCN5CCN(C)C(=O)[C@H]5C)cc4)CC3)nn12 [AZD5153] + C=CCn1c(=O)c2cnc(Nc3ccc(N4CCN(C)CC4)cc3)nc2n1-c1cccc(C(C)(C)O)n1 [AZD1775] (first compound max 1 µM, partner max 1 µM) | 0.0085 | -0.0594 | -0.0271 | -0.0271 | -0.0172 | -0.0146 | 0.0205 | 0.0038 | -0.0266 | -0.067 | -0.0225 | -0.0858 | 0.0147 | -0.0461 | -0.0252 | -0.0118 | 0.0156 | 0.0252 | -0.029 | 0.574
6 | COc1nnc2ccc(N3CCC(c4ccc(OCCN5CCN(C)C(=O)[C@H]5C)cc4)CC3)nn12 [AZD5153] + CC1(C)CCC(CN2CCN(c3ccc(C(=O)NS(=O)(=O)c4ccc(NCC5CCOCC5)c([N+](=O)[O-])c4)c(Oc4cnc5[nH]ccc5c4)c3)CC2)=C(c2ccc(Cl)cc2)C1 [Venetoclax] (first compound max 1 µM, 7x7, partner max 1 µM) | -0.0287 | -0.0346 | -0.0649 | 0.0162 | -0.0462 | -0.0663 | -0.0442 | -0.0399 | -0.0376 | -0.0708 | 0.0179 | -0.0245 | -0.085 | -0.0372 | 0.0192 | -0.109 | -0.0107 | 0.0051 | -0.0319 | 0.419
